Experimental data from patent US8986696B2, “Trans-capsular administration of p38 map kinase inhibitors into orthopedic joints” (DePuy Mitek, Inc., priority 2007, dated 2015).

Assays:
[1] = test system: rabbit anterior cruciate ligament transection (ACLT) model of osteoarthritis; assay: ACLT model, SCIO-469 (Example VIII); format: in vivo
Method: The formulation of the highest concentration was diluted into the lower concentrations using ORTHOVISC®. Once prepared, the formulations were stored at 4° C. The study design consisted of an n=12 per group. The SCIO-469 (SD 469) was suspended in ORTHOVISC®. A total of 160 μl was injected at each administration. The intra-articular injections were performed according to the ACLT model. However, control groups either received no injections or received the ORTHOVISC® vehicle delivered once weekly for three weeks. Euthanasia was performed according to the ACLT model. However, the animals were euthanized nine weeks post ACLT with an intravenous injection of pentobarbital (60 mg/kg). […] At the time of sacrifice the following parameters were evaluated grossly (the scale follows in parenthesis): Each parameter was given a score. The combination of all parameters gave a Total Score (0-52). […] Lastly, an All Cartilage Effects Score was obtained. The score for All Cartilage Effects ranges from 0 to 40. The grades that compose this parameter are trochlear groove thickness and erosion, all the grades in All Condylar Effects, and all grades listed under tibial plateau. A higher score indicates more damage to the joint. A lower score indicates less damage or more cartilage preservation to the joint. Individual results for each parameter assessed were tabulated (data not shown).

[2] = drug content in the joints (Example VIII); format: in vivo, rabbit; conditions: at the time of analysis
Description: For each treatment group, four animals were included to provide pharmacokinetic data (available drug levels in blood and tissue). Prior to treatment administration, blood samples were collected and frozen for analysis. After gross observation, the joints were removed and frozen for analysis.

[3] = test system: chondrocytes; format: cell-based; conditions: bovine, 100000 nM
Description: (§1) Calf articular cartilage was obtained from the knee joints of eight to twelve month old animals and was processed within twenty-four hours after sacrifice. After removal of muscle and ligament, the cartilage was kept moist using phosphate buffer solution (PBS) to prevent tissue dehydration, and was aseptically peeled off from subchondral bone with a scalpel, and the cartilage pieces were further minced into smaller pieces (˜0.3-0.5×˜0.2-0.5 cm cubes). […] Chondrocytes were then enzymatically isolated from the tissue by incubation for overnight at 37° C. with gentle agitation in 0.2% collagenase in Dulbecco's modified eagle media (DMEM). After removal of tissue debris by filtration through cell strainer and the residual collagenase by 3× wash in PBS, cells were finally resuspended at a density of 2.5×10^6 cells/ml in chondrocyte medium. A 1 ml aliquot of the cell suspension was dispensed into either a 15 ml Falcon centrifuge tube or a 96 deep-well plate and centrifuged at 2000×g for five minutes. The chondrocyte pellets were incubated at 37° C. in a humidified atmosphere of 5% CO2 for two to three weeks with a medium change every other day.
(§2) As an alternative to using calf articular cartilage, a commercial Alginate Recovered Chondrocytes (ARC) system was also used (Articular Engineering, LLC (Northbrook, Ill.)). Use of the commercial system cut down on labor and time in producing chondrocyte pellet. This system produced cartilaginous tissue in vitro using bovine chondrocytes. The first step consisted of culturing chondrocytes in alginate under conditions optimal for the formation of a cell-associated matrix (CM). The second step allowed these cells with their CM, after recovery, to rapidly form and become integrated into a solid mass of cartilage on a porous insert within two weeks. This tissue is rich in cells surrounded by a cell-associated matrix that is degraded rapidly when the cells are exposed to IL-1. ARC tissues in 3 mm punches at delivery were first dispensed into a 96 deep-well plate, one punch per well, for compound treatment. The subsequent procedures were the same as those used for the chondrocyte pellets.
(§3) Chondrocyte pellets were washed once with 1 ml of Chondrocyte Stimulation Medium and equilibrated in the same medium at room temperature for fifteen to thirty minutes. Compounds were dissolved in H2O, Ethanol or dimethyl sulfoxide (DMSO) (10^−2 M) according to suppliers' instructions and further diluted with Chondrocyte Stimulation Medium to the required concentrations. DMSO concentrations in the culture media should not exceed 1%; this concentration of DMSO has no effect on cartilage proteoglycan metabolism in response to cytokines.
The pellets were first treated with compounds at desired concentrations at 37° C. for one hour and then incubated for three to five days in the absence or presence of 10 ng/ml of IL-1β. At the end of the incubation, media and pellets were harvested and frozen for further analysis. Pellets were also fixed as needed in 4% (w/v) paraformaldehyde in PBS for histology analysis.
The LDH activity was determined colorimetrically in an enzymatic test based on the conversion of lactic acid to pyruvate in the presence of chromagenic substrate tetrazolium salt INT that was reduced to formazan.

[4] = test system: IL-1β-stimulated GAG release, bovine chondrocyte pellets / ARC tissues; assay: chondrocyte pellet culture model: GAG degradation; format: cell-based
Description: as §1, §2, §3
[…] At the end of the incubation, media and pellets were harvested and frozen for further analysis. Pellets were also fixed as needed in 4% (w/v) paraformaldehyde in PBS for histology analysis.
Glycosaminoglycan (GAG) levels in the culture media were determined by measuring the amount of polyanionic material reacting with 1,9-dimethylmethylene blue (DME) as detected by absorbance at 525 nm, using shark chondroitin sulfate as a standard. The DME blue dye-binding solution was prepared by dissolving 16 mg of DME blue in a solution containing 0.304% glycine, 0.23% sodium chloride (NaCl), 9.5 mM hydrochloric acid (HCl), pH=3.0 with absorbance at 525 equal to 0.31. Proteoglycans and proteoglycan metabolites in chondrocyte pellet were released by digesting the pellet with 125 μg/ml of papain in 0.1 M PBS, pH 6.0, 5 mM cysteine, 5 mM ethylene-diamine-tetra-acetic acid disodium salt (Na2EDTA) at 50° C. for overnight. Results are reported as either micrograms of GAG per milliliter or percent of total GAG released into culture medium.

C[C@@H]1CN(Cc2ccc(F)cc2)[C@@H](C)CN1C(=O)c1cc2c(C(=O)C(=O)N(C)C)cn(C)c2cc1Cl [SCIO-469 (SD 469)]
All Cartilage Effects (0-40), mean ([1]; 0.5 μg/kg): 12.75
All Condylar Effects (0-18), mean ([1]; 0.5 μg/kg): 6.45
All Tibial Plateau Effects (0-24), mean ([1]; 0.5 μg/kg): 7.20
All Trochlear Groove Effects (0-10), mean ([1]; 0.5 μg/kg): 8.40
Femoral Condyle % Surface Area Erosion (Lateral), mean score ([1]; 0.5 μg/kg): 2.80
Femoral Condyle % Surface Area Erosion (Medial), mean score ([1]; 0.5 μg/kg): 0.90
Femoral Condyle Depth of Erosion (Lateral), mean score ([1]; 0.5 μg/kg): 2.00
Femoral Condyle Depth of Erosion (Medial), mean score ([1]; 0.5 μg/kg): 0.55
Femoral Condyle Presence of Clefts, mean score ([1]; 0.5 μg/kg): 0.20
Tibial Plateau # of Osteophytes (Lateral), mean score ([1]; 0.5 μg/kg): 1.50
Tibial Plateau # of Osteophytes (Medial), mean score ([1]; 0.5 μg/kg): 1.80
Tibial Plateau % Surface Area Erosion (Lateral), mean score ([1]; 0.5 μg/kg): 2.00
Tibial Plateau % Surface Area Erosion (Medial), mean score ([1]; 0.5 μg/kg): 0
Tibial Plateau Depth of Erosion (Lateral), mean score ([1]; 0.5 μg/kg): 1.90
Tibial Plateau Depth of Erosion (Medial), mean score ([1]; 0.5 μg/kg): 0
Tibial Plateau Presence of Clefts (Lateral), mean score ([1]; 0.5 μg/kg): 0
Tibial Plateau Presence of Clefts (Medial), mean score ([1]; 0.5 μg/kg): 0
Total Score (0-52), mean ([1]; 0.5 μg/kg): 22.05
Trochlear Groove # of Osteophytes, mean score ([1]; 0.5 μg/kg): 3.00
Trochlear Groove Erosion of Cartilage, mean score ([1]; 0.5 μg/kg): 2.40
Trochlear Groove Osteophyte Size, mean score ([1]; 0.5 μg/kg): 3.00
Trochlear Groove Thickening, mean score ([1]; 0.5 μg/kg): 0
All Cartilage Effects (0-40), mean ([1]; 5 μg/kg): 13.17
All Condylar Effects (0-18), mean ([1]; 5 μg/kg): 6.50
All Tibial Plateau Effects (0-24), mean ([1]; 5 μg/kg): 7.08
All Trochlear Groove Effects (0-10), mean ([1]; 5 μg/kg): 8.08
Femoral Condyle % Surface Area Erosion (Lateral), mean score ([1]; 5 μg/kg): 1.67
Femoral Condyle % Surface Area Erosion (Medial), mean score ([1]; 5 μg/kg): 1.67
Femoral Condyle Depth of Erosion (Lateral), mean score ([1]; 5 μg/kg): 1.96
Femoral Condyle Depth of Erosion (Medial), mean score ([1]; 5 μg/kg): 1.21
Femoral Condyle Presence of Clefts, mean score ([1]; 5 μg/kg): 0
Tibial Plateau # of Osteophytes (Lateral), mean score ([1]; 5 μg/kg): 1.08
Tibial Plateau # of Osteophytes (Medial), mean score ([1]; 5 μg/kg): 1.67
Tibial Plateau % Surface Area Erosion (Lateral), mean score ([1]; 5 μg/kg): 1.50
Tibial Plateau % Surface Area Erosion (Medial), mean score ([1]; 5 μg/kg): 0.58
Tibial Plateau Depth of Erosion (Lateral), mean score ([1]; 5 μg/kg): 1.63
Tibial Plateau Depth of Erosion (Medial), mean score ([1]; 5 μg/kg): 0.63
Tibial Plateau Presence of Clefts (Lateral), mean score ([1]; 5 μg/kg): 0
Tibial Plateau Presence of Clefts (Medial), mean score ([1]; 5 μg/kg): 0
Total Score (0-52), mean ([1]; 5 μg/kg): 21.67
Trochlear Groove # of Osteophytes, mean score ([1]; 5 μg/kg): 2.83
Trochlear Groove Erosion of Cartilage, mean score ([1]; 5 μg/kg): 2.17
Trochlear Groove Osteophyte Size, mean score ([1]; 5 μg/kg): 2.92
Trochlear Groove Thickening, mean score ([1]; 5 μg/kg): 0.17
All Cartilage Effects (0-40), mean ([1]; 50 μg/kg): 8.32
All Condylar Effects (0-18), mean ([1]; 50 μg/kg): 4.18
All Tibial Plateau Effects (0-24), mean ([1]; 50 μg/kg): 5.41
All Trochlear Groove Effects (0-10), mean ([1]; 50 μg/kg): 6.91
Femoral Condyle % Surface Area Erosion (Lateral), mean score ([1]; 50 μg/kg): 1.18
Femoral Condyle % Surface Area Erosion (Medial), mean score ([1]; 50 μg/kg): 1.27
Femoral Condyle Depth of Erosion (Lateral), mean score ([1]; 50 μg/kg): 1.05
Femoral Condyle Depth of Erosion (Medial), mean score ([1]; 50 μg/kg): 0.68
Femoral Condyle Presence of Clefts, mean score ([1]; 50 μg/kg): 0
Tibial Plateau # of Osteophytes (Lateral), mean score ([1]; 50 μg/kg): 0.91
Tibial Plateau # of Osteophytes (Medial), mean score ([1]; 50 μg/kg): 1.73
Tibial Plateau % Surface Area Erosion (Lateral), mean score ([1]; 50 μg/kg): 1.09
Tibial Plateau % Surface Area Erosion (Medial), mean score ([1]; 50 μg/kg): 0.36
Tibial Plateau Depth of Erosion (Lateral), mean score ([1]; 50 μg/kg): 1.14
Tibial Plateau Depth of Erosion (Medial), mean score ([1]; 50 μg/kg): 0.18
Tibial Plateau Presence of Clefts (Lateral), mean score ([1]; 50 μg/kg): 0
Tibial Plateau Presence of Clefts (Medial), mean score ([1]; 50 μg/kg): 0
Total Score (0-52), mean ([1]; 50 μg/kg): 16.50
Trochlear Groove # of Osteophytes, mean score ([1]; 50 μg/kg): 2.64
Trochlear Groove Erosion of Cartilage, mean score ([1]; 50 μg/kg): 1.36
Trochlear Groove Osteophyte Size, mean score ([1]; 50 μg/kg): 2.91
Trochlear Groove Thickening, mean score ([1]; 50 μg/kg): 0
utility in ACLT model, gross observations ([1]; 0.5, 5 or 50 μg/kg, direct injection into a diseased joint): did not demonstrate the utility
drug content in the joints [2]: no drug could be detected
increase of LDH level [3]: 121%
inhibition of GAG degradation ([4]; ARC tissues stimulated with IL-1β): no effect
GAG Release ([4]; Pellet Assay): No effect
